Experimental data taken from US8962003B2, “Insect behaviour modifying compounds” (The New Zealand Institute for Plant and Food Research …, priority 2003, dated 2015).

Legend:
[1] = test system: Frankliniella occidentalis; test: Y-tube olfactometer bioassay; type: in vivo; settings: for MAC (%) = Minimum Active Concentration to elicit a response from thrips (P < 0.05): 1 µl undiluted or diluted in hexane; for % Response: percentage of thrips to walk up odour-laden arm: same cell prints a '(t value)' in brackets; for Behaviour-modifying activity towards Frankliniella occidentalis (in words): text statements (Table 2)
Description: The thrips behaviour-modifying activity of a compound may be evaluated in a glass Y-tube olfactometer following the method described by de Kogel et al. (de Kogel, W. J., Koschier, E. H. and Visser, J. H. Proc. Exper. & Appl. Entomol., N. E. V. Amsterdam, (1999) 10, 131-135.) and Koschier et al. (Koschier, E. H., De Kogel, W. J. and Visser, J. H. (2000) Jounrnal of Chemical Ecology, 26, 2643-2655).
The olfactory behaviour of thrips toward volatile compounds was evaluated in a glass Y-tube olfactometer following the method described by de Kogel et al. (de Kogel, W. J., Koschier, E. H. and Visser, J. H. Proc. Exper. & Appl. Entomol., N. E. V. Amsterdam, (1999) 10, 131-135.) and Koschler et al. (Koschier, E. H., De Kogel, W. J. and Visser, J. H. (2000) Journal of Chemical Ecology, 26, 2643-2655.). The Y-tube has two branching arms at an angle of 45° leading into a single tube, all 60 mm long, with an internal diameter of 5 mm. The arms of the Y-tube were connected to glass Wheaton Micro Kit® adapters that were in turn attached to 4 ml glass vials each containing a 1 cm^2 piece of filter paper (Whatman No. 1). The Y-tube and Wheaton apparatus were placed in a grey-box (to prevent external stimuli influencing thrips' behaviour), located in a darkened, air-conditioned room (22±3° C.). The Y-tube was placed at an inclining position of 25° between the Y-tube and horizontal plane and illuminated from above by a halogen lamp (780 lux). One microliter of the volatile compounds, either undiluted or diluted in hexane (95%, Pronalys AR), was applied to filter paper in one vial, while 1 μl of hexane was applied to filter paper held in the second vial. Air was drawn through activated charcoal before entering the Wheaton apparatus and Y-tube using a suction pump (AR Harris Co. Ltd, Christchurch) producing an airflow of 5 cm/s through each arm and 10 cm/s at the base of the Y-tube. Air was drawn through for 30 min before introducing the first thrips. Connections between the activated charcoal, Wheaton apparatus, Y-tube and suction pump consisted of silicone tubing.
An individual female Frankliniella occidentalis thrips of unknown age, that had been starved overnight, was released into the Y-tube using a small aspirator. The aspirator was made by placing a 1 ml pipette tip over the end of silicone tubing (5 mm diameter) the end of which was covered with fine mesh; the pipette tip was cut so it projected 5 mm beyond the end of the silicone tubing. A thrips was sucked up into the pipette tip, which was then placed at the base of the Y-tube. Most thrips walked up into the Y-tube within a few seconds, at which time the silicone air suction tubing was reconnected to the glass Y. The choice between clean or odour laden airflow was recorded when the thrips reached the far end of one arm and only those thrips that made the choice within 3 min were recorded. After every 5 thrips the Y-tube and Wheaton apparatus were rotated […] to avoid position effects. After 25 choices were recorded, the Y-tube and Wheaton apparatus were thoroughly cleaned with acetone (99.5%, BDH) and allowed to dry before repeating the experiment. Each compound and dilution was replicated 3 times.

[2] = test system: Frankliniella occidentalis; settings: MacDonald et al. 2002; cited from earlier work
[3] = test system: Thrips obscuratus; test: Field trials with baited water traps; type: in vivo; settings: for Average ratio of female thrips caught relative to water traps (95% CI): female Thrips obscuratus, field water traps, 1 ml compound, 24 or 48 h, * = P < 0.05 vs control trap, brackets = backtransformed 95% CI
Excerpt: (§1) Water traps were placed out into a field comprising several species of grasses, white clover (Trifolium repens L.) and several weed species (≈100 mm in height). Grass and cereal fields surrounded the field trial area on three sides and poplar (Poplar nigra L.) trees on the other, on the Canterbury Agricultural Research Centre campus. Each field trial consisted of five replicates of five treatments including a water control, positive control compound (ethyl nicotinate, ethyl isonicotinate, or benzaldehyde, Table 1) and three test compounds set out in the field in a grid (10×10 m) using a Latin square design with the trial area at least 100 m from the field boundary/shelter belt. White plastic containers (2 L capacity, 16×16×8.5 cm) containing approximately 1.7 L water, 0.4 ml of formalin (to prevent fungal growth) and 0.08 ml tween were placed above the crop canopy on inverted white (2 L capacity, 16×16×8.5 cm) or black plastic containers (24 cm diameter, 13 cm tall). For each treatment, 1 ml of a compound or water was added to a glass vial (12×32 mm screw thread vial) containing a 4.5 cm^2 piece of rolled filter paper (Whatman No. 1) that projected 1 cm above the top of the vial, creating a wick. The glass vial was suspended above the water in the centre of the trap using wire (0.5 mm diameter). The vials were removed after 24 or 48 h and the containers were sealed for transport to a laboratory. The contents from a water trap were poured through a sieve (250 μm mesh) and all insects were washed into a 50 ml Schott bottle within 24 h of collecting them from the field. All thrips were pipetted from each water trap sample and counted. Thrips were mounted on to slides using polyvinyl alcohol glue (1 part polyvinyl alchol: 4 parts water, 1 part lactic acid: 1.25 parts phenyl) from each trap using the following subsample method: less than 50 thrips, all thrips were mounted on to a slide; 50 to 100 thrips, a subsample of 25 thrips were mounted on to a slide; more than 100 thrips, a subsample of 50 thrips were mounted on to a slide. The slides were examined under 100× magnification using a compound microscope to identify thrips species. Subsampled thrips were sexed and identified to species according to Mound and Walker (Mound, L. A. and Walker, A. K. 1982. Terebrantia (Insecta: Thysanoptera). Fauna of New Zealand No. 1.). The mean number of each species for each treatment was calculated by multiplying the proportion of each species within a subsample with the total number of thrips counted in each water trap.

[4] = test system: Frankliniella occidentalis; test: Greenhouse trials with water traps or yellow sticky traps; type: in vivo; settings: 24 h, capsicum greenhouse, t-value in brackets in same cell
Excerpt: Greenhouse trials were undertaken using water traps similar to those used in the field trials (Example 2), or yellow sticky traps (Veg-Gro Supplies Ltd, Auckland) to examine the response of thrips to volatile compounds. The greenhouse, located in Auckland, is ≈88×200 m, constructed of glass, and is used to grow capsicum (Capsicum annuum var. Special, Fiesta, Boogie and Stirit). Water traps were placed 20 to 24 m apart within a row and 24 m apart between rows. There were 6 baited water traps for each compound tested and 6 water-only traps randomly positioned in a 6×2 grid in the greenhouse. Traps were positioned just above the crop canopy. Water traps (2 L containers, 16×16×8.5 cm) were assembled as described in Example 2 and left in the greenhouse for 24 h, after which time the containers were sealed for transport to a laboratory. Insects from each water trap were transferred to 5 ml glass tubes containing 75% ethanol within 24 h of collecting them from the greenhouse. Catches from each treatment were analysed under a stereomicroscope (100×) and the proportion of Frankliniella occidentalis was determined.
Yellow sticky traps (24.4×20 cm) were treated with a compound or water using a 30 ml spray mist dripulator (Arthur Holmes, Wellington) held 10 cm away from the sticky trap. Four sprays were applied to each side, coating the sticky trap in approximately 1 ml of water or compound. Sticky traps sprayed with the same treatment were separated using black metal foldback clips (19 mm, Celco), suspended within a cardboard box (29.5×22.3×30.2 cm), which was in turn sealed within a plastic bag for transport to the greenhouse. Traps were suspended in the greenhouse just above the crop canopy within 3 h after spraying, using the same layout as for the water traps (20 to 24 m apart within a row, 24 m between rows, in a 6×2 grid). After 24 h the traps were collected by wrapping each trap in plastic wrap for transport to the laboratory. The total number of thrips on the traps were counted using 10× magnification. Thrips were removed from the sticky traps using De-Solv-it® and Johnsons baby oil®. A subsample from each treatment was further analysed under a stereomicroscope (100×) and the proportion of Frankliniella occidentalis was determined.

[5] = test system: Thrips tabaci; test: Field trials with baited water traps; type: in vivo; settings: field trials (Table 1)
Excerpt: as §1

[6] = female Frankliniella occidentalis, Y-tube
[7] = female Frankliniella occidentalis
[8] = Yellow sticky trap, about 1 ml sprayed, >95% of thrips caught were Frankliniella occidentalis
[9] = Water trap, around 66% of thrips caught were Frankliniella occidentalis

Row | SMILES | MAC (%) = Minimum Active Concentration to elicit a response from thrips (P < 0.05) [1, 7] | % Response: percentage of thrips to walk up odour-laden arm [1, 7] | Behaviour-modifying activity towards Frankliniella occidentalis (in words) [1] | also measured
1 | N#Cc1ccncc1 [4-Cyanopyridine] | <100% | 38.7 (0.026) % | thrips-repellant activity | Comment (repellant) [1, 6]: Repellant
2 | O=Cc1ccncc1 [4-Formylpyridine] | 0.001% | 66.7 (0.002) % |  | Comment: concentration above which the compound is repellant ([1]; female Frankliniella occidentalis, Y-tube, no unit in the cell (MAC column is in %)): Repellant > 0.01; Activity towards Frankliniella occidentalis at high concentration ([1]; high concentration): repellant; Activity towards Frankliniella occidentalis at low concentration ([1]; low concentration): attractant
3 | CC(=O)Sc1ccncc1 [4-Pyridyl thioacetate] | <100% | 26.7 (<0.001) % | thrips-repellant activity | Comment (repellant) [1, 6]: Repellant
4 | CCCCCCCCCCOC(C)=O [Decyl acetate] |  |  |  | Repellant activity towards Frankliniella occidentalis (literature, alarm pheromones) [2]: repellant activity
5 | CCCCCCCCCCOC(=O)c1ccncc1 [Decyl isonicotinate] |  |  |  | Average ratio of female thrips caught relative to water traps (95% CI) [3]: 14.9 (0.3, 739.5)
6 | CC(C)N(C(=O)c1ccncc1)C(C)C [Di-iso-Propyl isonicotinate, diisopropyl isonicotinamide] | <100% | 81.3 (<0.001) % | attractant | 
7 | CCOC(=O)c1ccnc(Cl)c1 [Ethyl 2-chloro-isonicotinate] | 0.0001% | 65.3 (0.005) % | strong attractant | Average ratio of thrips caught relative to water treated traps [4, 8]: 1.8 (2.8)
8 | CCC(=O)c1ccncc1 [Ethyl 4-pyridyl ketone] | 1% | 68.0 (0.001) % |  | Attractancy to Thrips tabaci (in words) [5]: attractants
9 | CCOC(=O)c1ccncc1 [Ethyl isonicotinate] | 0.001% | 60.0 (0.043) % |  | Average ratio of thrips caught relative to water treated traps [4, 9]: 2.2 (2.8); Average ratio of thrips caught relative to water treated traps [4, 8]: 2.6 (3.9)
10 | CC(C)OC(=O)c1ccncc1 [Isopropyl isonicotinate] | 1% | 66.7 (0.002) % |  | 
11 | CC(=O)c1ccncc1 [Methyl 4-pyridyl ketone] | 0.001% | 77.3 (<0.001) % |  | Average ratio of female thrips caught relative to water traps (95% CI) [3]: 0 (0.0, >1000); Attractancy to Thrips tabaci (in words) [5]: attractants; Average ratio of thrips caught relative to water treated traps [4, 8]: 3.1 (6.6)
12 | COC(=O)c1ccncc1 [Methyl isonicotinate] | 0.0001% | 74.7 (<0.001) % |  | Average ratio of thrips caught relative to water treated traps [4, 9]: 4.3 (5.7); Average ratio of thrips caught relative to water treated traps [4, 8]: 3.7 (8.1)
13 | c1cc(C2OCCO2)ccn1 [Pyridine, 4-(1,3-dioxalan-2-yl), 4-(1,3-Dioxolan-2-yl)pyridine] | 1% |  |  | Average ratio of female thrips caught relative to water traps (95% CI) [3]: 16.6 (0.3, 827.2)
14 | CCCCCCCCCCCCOC(C)=O [dodecyl acetate] |  |  |  | Repellant activity towards Frankliniella occidentalis (literature, alarm pheromones) [2]: repellant activity
15 | CCCCCCOC(=O)c1ccncc1 [hexyl isonicotinate] |  |  |  | Attractancy to Thrips obscuratus (in words) [3]: not found to be significantly attractive; Attractancy to Thrips tabaci (in words) [5]: not found to be significantly attractive
16 | C=C(C)CCOC(=O)c1ccncc1 [isopentenyl isonicotinate] |  |  | not found to be significantly attractive or repulsive | 
17 | CCCC(=O)c1ccncc1 [n-Propyl 4-pyridyl ketone] | 100% | 54.7 (0.282) % | attractant | 
18 | CCCOC(=O)c1ccncc1 [n-Propyl isonicotinate] | 0.1% | 61.3 (0.026) % |  | 
